Test results as given in patent publication US6639111B2, “5-thia-ω-(substituted phenyl)-prostaglandin E alcohols, process for preparing the alcohols and pharmaceutical preparations containing the same as the active ingredient” (Ono Pharmaceutical Co., Ltd., priority 2000, dated 2003).

What was measured:
TNF-α = assay: Inhibitory action on producing TNF-α induced by LPS in rat; type: in vivo, SD-strain male rat; details: p.o. 30 minutes before LPS (10 μg/2 ml/kg i.v.); dose giving 50% inhibition of TNF-α in blood plasma 90 minutes after LPS
Protocol: LPS (10 μg/2 ml/kg) was administered into a tail vein of SD-strain male rat. Blood was collected from an abdominal large vein with heparin after 90 minutes from administration to prepare blood plasma. The amount of TNF-α in the blood plasma was determined by using ELISA Kit (Rat TNF-α Immunoassay kit, Biosource Co.). Each compound of the present invention was administered orally before 30 minutes from administration of LPS.

[1] = Converting into carboxylic acid in the living body: concentration in blood plasma of rat (LC/MS/MS); type: in vivo, SD-strain male rat; details: after Example 1(1) 1 mg/kg intravenous to rat, parent alcohol and the carboxylic acid formed from it
Protocol: The compound of Example 1(1) (1 mg/kg; alcohol compound) was administered into SD-strain male rat by intravenous route to determine each concentration of the said compound and corresponding carboxylic acid, i.e., (11α, 15α, 13E)-9-oxo-11,15-dihydroxy-16-(3-methoxymethylphenyl)-17,18,19,20-tetranor-5-thiaprost-13-enoic acid (corresponding carboxylic acid) in blood plasma. The test solution may be prepared from a physiological saline solution containing 0.3%ethanol and 0.1% POLYSORBATE 80. The concentration was determined by using liquid chromatograph mass spectrometer (LC/MS/MS).

Effective dose IC50 (TNF-α)	AUC(0-inf) ([1]; male, SD, plasma, read-out: Concentration in blood plasma AUC0-∞)	Concentration in blood plasma AUC0-∞ [1]	SMILES
0.0574 mg/kg	0.462 ± 0.078 µg·h/mL		COCc1cccc(C[C@H](O)/C=C/[C@H]2[C@H](O)CC(=O)[C@@H]2CCSCCCCO)c1 [Example 1(1), (11α, 15α, 13E)-9-oxo-11,15-Dihydroxy-16-(3-methoxymethylphenyl)-17,18,19,20-tetranor-5-thiaprost-13-en-1-alcohol]
0.117 mg/kg			COCc1cccc(C[C@H](O)/C=C/[C@H]2CCC(=O)[C@@H]2CCSCCCCO)c1 [Example 1, (15α, 13E)-9-oxo-15-Hydroxy-16-(3-methoxymethylphenyl)-17,18,19,20-tetranor-5-thiaprost-13-en-1-alcohol]
		0.099 ± 0.026 µg·h/mL	COCc1cccc(C[C@H](O)/C=C/[C@H]2[C@H](O)CC(=O)[C@@H]2CCSCCCC(=O)O)c1 [corresponding carboxylic acid, (11α, 15α, 13E)-9-oxo-11,15-dihydroxy-16-(3-methoxymethylphenyl)-17,18,19,20-tetranor-5-thiaprost-13-enoic acid]
